Counter-ions that a name gives are not always drawn. Like-named read-outs stand apart in the source and are kept apart here.
How the values were obtained:
Assay in all cases: AK assay 384-well format, Prestwick library screening
K. pneumoniae = format: cell-based, Klebsiella pneumoniae; settings: for fold induction at 50 µM: Klebsiella pneumoniae, 3 h
E. faecium = format: cell-based, Enterococcus faecium; settings: for fold induction at 50 µM: Enterococcus faecium, 3 h
E. coli = format: cell-based, Escherichia coli; settings: for fold induction at 50 µM: Escherichia coli, 3 h
[1] = system: S. aureus strain USA300-0114; format: cell-based, Staphylococcus aureus; settings: for fold induction at 50 µM: Staphylococcus aureus, USA300, 3 h
E. cloacae = format: cell-based, Enterobacter cloacae; settings: for fold induction at 50 µM: Enterobacter cloacae, 3 h
P. aeruginosa = format: cell-based, Pseudomonas aeruginosa; settings: for fold induction at 50 µM: Pseudomonas aeruginosa, 3 h
[2] = system: A. baumannii strain 98-37-09; format: cell-based, Acinetobacter baumannii; settings: for fold induction at 50 µM: Acinetobacter baumannii, 983709, 3 h
[3] = 50 μM final drug concentration, planktonic, cutoff for positive-scoring molecules 3-fold increase

What does the source list for CCCCOc1cc(C(=O)OCCN(CC)CC)ccc1N [Benoxinate hydrochloride]?
fold induction at 50 µM (K. pneumoniae; planktonic K. pneumoniae, 50 μM final drug concentration, 384-well, cutoff for positive-scoring molecules 3-fold increase, read-out: AK-based Prestwick Library Screening Results: K. pneumoniae (increase in extracellular AK activity)): 1; fold induction at 50 µM (E. faecium; planktonic E. faecium, 50 μM final drug concentration, 384-well, cutoff for positive-scoring molecules 3-fold increase, read-out: AK-based Prestwick Library Screening Results: E. faecium (increase in extracellular AK activity)): 0.9; fold induction at 50 µM (E. coli; planktonic E. coli, 50 μM final drug concentration, 384-well, cutoff for positive-scoring molecules 3-fold increase, read-out: AK-based Prestwick Library Screening Results: E. coli (increase in extracellular AK activity)): 1.3; fold induction at 50 µM ([1]; planktonic S. aureus, 50 μM final drug concentration, 384-well, cutoff for positive-scoring molecules 3-fold increase, read-out: AK-based Prestwick Library Screening Results: S. aureus (increase in extracellular AK activity)): 1; fold induction at 50 µM (E. cloacae; planktonic E. cloacae, 50 μM final drug concentration, 384-well, cutoff for positive-scoring molecules 3-fold increase, read-out: AK-based Prestwick Library Screening Results: E. cloacae (increase in extracellular AK activity)): 1.4; fold induction at 50 µM (P. aeruginosa; planktonic P. aeruginosa, 50 μM final drug concentration, 384-well, cutoff for positive-scoring molecules 3-fold increase, read-out: AK-based Prestwick Library Screening Results: P. aeruginosa (increase in extracellular AK activity)): 0.9; fold induction at 50 µM ([2]; planktonic A. baumannii, 50 μM final drug concentration, 384-well, cutoff for positive-scoring molecules 3-fold increase, read-out: AK-based Prestwick Library Screening Results: A. baumannii (increase in extracellular AK activity)): 1.1

CCC1NC(=O)c2cc(S(N)(=O)=O)c(Cl)cc2N1 (centres unmarked) [Quinethazone] was tested. Which fold induction at 50 µM (K. pneumoniae; 50 μM final drug concentration, cutoff for positive-scoring molecules 3-fold increase, read-out: AK-based Prestwick Library Screening Results, K. pneumoniae (fold increase in extracellular AK activity)) did it give?
Its fold induction at 50 µM is 0.6.

And the fold induction at 50 µM (E. faecium; 50 μM final drug concentration, cutoff for positive-scoring molecules 3-fold increase, read-out: AK-based Prestwick Library Screening Results, E. faecium (fold increase in extracellular AK activity))?
Its fold induction at 50 µM is 0.9.

What about the fold induction at 50 µM (E. coli; 50 μM final drug concentration, cutoff for positive-scoring molecules 3-fold increase, read-out: AK-based Prestwick Library Screening Results, E. coli (fold increase in extracellular AK activity)) of the same compound?
The fold induction at 50 µM was 0.6.

What about the fold induction at 50 µM ([1]; 50 μM final drug concentration, cutoff for positive-scoring molecules 3-fold increase, read-out: AK-based Prestwick Library Screening Results, S. aureus (fold increase in extracellular AK activity)) of the same compound?
Its fold induction at 50 µM is 0.4.

And the fold induction at 50 µM (E. cloacae; 50 μM final drug concentration, cutoff for positive-scoring molecules 3-fold increase, read-out: AK-based Prestwick Library Screening Results, E. cloacae (fold increase in extracellular AK activity))?
Its fold induction at 50 µM is 0.4.

And the fold induction at 50 µM (P. aeruginosa; 50 μM final drug concentration, cutoff for positive-scoring molecules 3-fold increase, read-out: AK-based Prestwick Library Screening Results, P. aeruginosa (fold increase in extracellular AK activity))?
The fold induction at 50 µM was 0.5.

And the fold induction at 50 µM ([2]; 50 μM final drug concentration, cutoff for positive-scoring molecules 3-fold increase, read-out: AK-based Prestwick Library Screening Results, A. baumannii (fold increase in extracellular AK activity))?
The fold induction at 50 µM was 0.5.

With CC(C)NCC(O)COc1cccc2[nH]ccc12 (centres unmarked) [Pindolol] as the compound, how does the fold induction at 50 µM (K. pneumoniae; 50 μM final drug concentration, 384-well format, cutoff for positive-scoring molecules 3-fold increase, read-out: AK-based Prestwick Library Screening Results, K. pneumoniae (increase in extracellular AK activity)) read?
Its fold induction at 50 µM is 0.6.

And the fold induction at 50 µM (E. faecium; 50 μM final drug concentration, 384-well format, cutoff for positive-scoring molecules 3-fold increase, read-out: AK-based Prestwick Library Screening Results, E. faecium (increase in extracellular AK activity))?
The fold induction at 50 µM was 1.

And the fold induction at 50 µM (E. coli; 50 μM final drug concentration, 384-well format, cutoff for positive-scoring molecules 3-fold increase, read-out: AK-based Prestwick Library Screening Results, E. coli (increase in extracellular AK activity))?
Its fold induction at 50 µM is 0.5.

And the fold induction at 50 µM ([1]; 50 μM final drug concentration, 384-well format, cutoff for positive-scoring molecules 3-fold increase, read-out: AK-based Prestwick Library Screening Results, S. aureus (increase in extracellular AK activity))?
The fold induction at 50 µM was 0.5.

What about the fold induction at 50 µM (E. cloacae; 50 μM final drug concentration, 384-well format, cutoff for positive-scoring molecules 3-fold increase, read-out: AK-based Prestwick Library Screening Results, E. cloacae (increase in extracellular AK activity)) of the same compound?
The fold induction at 50 µM was 0.4.

What about the fold induction at 50 µM (P. aeruginosa; 50 μM final drug concentration, 384-well format, cutoff for positive-scoring molecules 3-fold increase, read-out: AK-based Prestwick Library Screening Results, P. aeruginosa (increase in extracellular AK activity)) of the same compound?
Its fold induction at 50 µM is 0.4.

What about the fold induction at 50 µM ([2]; 50 μM final drug concentration, 384-well format, cutoff for positive-scoring molecules 3-fold increase, read-out: AK-based Prestwick Library Screening Results, A. baumannii (increase in extracellular AK activity)) of the same compound?
Its fold induction at 50 µM is 0.5.

CCCC(=O)Nc1ncnc2c1ncn2[C@@H]1O[C@@H]2COP(=O)(O)O[C@H]2[C@H]1OC(=O)CCC [Bucladesine sodium salt] was tested. Which fold induction at 50 µM (K. pneumoniae; 50 μM final drug concentration, planktonic, cutoff for positive-scoring molecules 3-fold increase, read-out: AK-based Prestwick Library Screening Results, K. pneumoniae (fold increase in extracellular AK activity)) did it give?
Its fold induction at 50 µM is 0.6.

And the fold induction at 50 µM (E. faecium; 50 μM final drug concentration, planktonic, cutoff for positive-scoring molecules 3-fold increase, read-out: AK-based Prestwick Library Screening Results, E. faecium (fold increase in extracellular AK activity))?
The fold induction at 50 µM was 0.9.

And the fold induction at 50 µM (E. coli; 50 μM final drug concentration, planktonic, cutoff for positive-scoring molecules 3-fold increase, read-out: AK-based Prestwick Library Screening Results, E. coli (fold increase in extracellular AK activity))?
The fold induction at 50 µM was 0.7.

And the fold induction at 50 µM ([1]; 50 μM final drug concentration, planktonic, cutoff for positive-scoring molecules 3-fold increase, read-out: AK-based Prestwick Library Screening Results, S. aureus (fold increase in extracellular AK activity))?
Its fold induction at 50 µM is 0.7.

What about the fold induction at 50 µM (E. cloacae; 50 μM final drug concentration, planktonic, cutoff for positive-scoring molecules 3-fold increase, read-out: AK-based Prestwick Library Screening Results, E. cloacae (fold increase in extracellular AK activity)) of the same compound?
The fold induction at 50 µM was 0.9.

What about the fold induction at 50 µM (P. aeruginosa; 50 μM final drug concentration, planktonic, cutoff for positive-scoring molecules 3-fold increase, read-out: AK-based Prestwick Library Screening Results, P. aeruginosa (fold increase in extracellular AK activity)) of the same compound?
Its fold induction at 50 µM is 0.8.

And the fold induction at 50 µM ([2]; 50 μM final drug concentration, planktonic, cutoff for positive-scoring molecules 3-fold increase, read-out: AK-based Prestwick Library Screening Results, A. baumannii (fold increase in extracellular AK activity))?
The fold induction at 50 µM was 0.8.

How did the “AK-based Prestwick Library Screening Results, K. pneumoniae (fold increase in extracellular AK activity)” value (K. pneumoniae; [3]) turn out when O.O=C1C(O)=C(O)C(=O)C(O)=C1O [Tetrahydroxy-1,4-quinone monohydrate] was run?
Its value is 0.8.

And the “AK-based Prestwick Library Screening Results, E. faecium (fold increase in extracellular AK activity)” value (E. faecium; [3])?
The value was 0.9.

What about the “AK-based Prestwick Library Screening Results, E. coli (fold increase in extracellular AK activity)” value (E. coli; [3]) of the same compound?
The value was 0.9.

And the “AK-based Prestwick Library Screening Results, S. aureus (fold increase in extracellular AK activity)” value [1, 3]?
Its value is 0.8.

What about the “AK-based Prestwick Library Screening Results, E. cloacae (fold increase in extracellular AK activity)” value (E. cloacae; [3]) of the same compound?
The value was 1.3.

What about the “AK-based Prestwick Library Screening Results, P. aeruginosa (fold increase in extracellular AK activity)” value (P. aeruginosa; [3]) of the same compound?
Its value is 0.9.

What about the “AK-based Prestwick Library Screening Results, A. baumannii (fold increase in extracellular AK activity)” value [2, 3] of the same compound?
The value was 1.1.

What does the source list for NCCC(=O)NCCc1c[nH]cn1 [Carcinine]?
fold induction at 50 µM (K. pneumoniae; planktonic K. pneumoniae, 50 μM final drug concentration, […], read-out: AK-based Prestwick Library Screening Results, K. pneumoniae (increase in extracellular AK activity)): 0.6; fold induction at 50 µM (E. faecium; planktonic E. faecium, 50 μM final drug concentration, […], read-out: AK-based Prestwick Library Screening Results, E. faecium (increase in extracellular AK activity)): 0.9; fold induction at 50 µM (E. coli; planktonic E. coli, 50 μM final drug concentration, […], read-out: AK-based Prestwick Library Screening Results, E. coli (increase in extracellular AK activity)): 0.8; fold induction at 50 µM ([1]; planktonic S. aureus, 50 μM final drug concentration, […], read-out: AK-based Prestwick Library Screening Results, S. aureus (increase in extracellular AK activity)): 0.7; fold induction at 50 µM (E. cloacae; planktonic E. cloacae, 50 μM final drug concentration, […], read-out: AK-based Prestwick Library Screening Results, E. cloacae (increase in extracellular AK activity)): 0.8; fold induction at 50 µM (P. aeruginosa; planktonic P. aeruginosa, 50 μM final drug concentration, […], read-out: AK-based Prestwick Library Screening Results, P. aeruginosa (increase in extracellular AK activity)): 0.8; fold induction at 50 µM ([2]; planktonic A. baumannii, 50 μM final drug concentration, […], read-out: AK-based Prestwick Library Screening Results, A. baumannii (increase in extracellular AK activity)): 0.8

Which fold induction at 50 µM (K. pneumoniae; read-out: AK-based Prestwick Library Screening Results, K. pneumoniae (increase in extracellular AK activity)) does the source give for COc1cc2c(c(OC)c1OC)-c1ccc(OC)c(=O)cc1[C@@H](NC(C)=O)CC2 [Colchicine] here?
The fold induction at 50 µM was 0.9.

And the fold induction at 50 µM (E. faecium; read-out: AK-based Prestwick Library Screening Results, E. faecium (increase in extracellular AK activity))?
Its fold induction at 50 µM is 1.

What about the fold induction at 50 µM (E. coli; read-out: AK-based Prestwick Library Screening Results, E. coli (increase in extracellular AK activity)) of the same compound?
Its fold induction at 50 µM is 1.2.

And the fold induction at 50 µM ([1]; read-out: AK-based Prestwick Library Screening Results, S. aureus (increase in extracellular AK activity))?
Its fold induction at 50 µM is 1.

And the fold induction at 50 µM (E. cloacae; read-out: AK-based Prestwick Library Screening Results, E. cloacae (increase in extracellular AK activity))?
The fold induction at 50 µM was 1.1.

And the fold induction at 50 µM (P. aeruginosa; read-out: AK-based Prestwick Library Screening Results, P. aeruginosa (increase in extracellular AK activity))?
Its fold induction at 50 µM is 1.

And the fold induction at 50 µM ([2]; read-out: AK-based Prestwick Library Screening Results, A. baumannii (increase in extracellular AK activity))?
The fold induction at 50 µM was 1.

Which results are given for CC(=O)O[C@H]1C[C@@H]2CC[C@@H]3[C@H](CC[C@@]4(C)[C@H]3C[C@H]([N+]3(C)CCCCC3)[C@@H]4OC(C)=O)[C@@]2(C)C[C@@H]1[N+]1(C)CCCCC1 [Pancuronium bromide]?
fold induction at 50 µM (K. pneumoniae; planktonic K. pneumoniae, 50 μM final drug concentration, positive cutoff 3-fold increase, read-out: AK-based Prestwick library screening result, K. pneumoniae (fold increase in extracellular AK activity)): 1; fold induction at 50 µM (E. faecium; planktonic E. faecium, 50 μM final drug concentration, positive cutoff 3-fold increase, read-out: AK-based Prestwick library screening result, E. faecium (fold increase in extracellular AK activity)): 1; fold induction at 50 µM (E. coli; planktonic E. coli, 50 μM final drug concentration, […], read-out: AK-based Prestwick library screening result, E. coli (fold increase in extracellular AK activity)): 1.1; fold induction at 50 µM ([1]; planktonic S. aureus, 50 μM final drug concentration, positive cutoff 3-fold increase, read-out: AK-based Prestwick library screening result, S. aureus (fold increase in extracellular AK activity)): 1.1; fold induction at 50 µM (E. cloacae; planktonic E. cloacae, 50 μM final drug concentration, positive cutoff 3-fold increase, read-out: AK-based Prestwick library screening result, E. cloacae (fold increase in extracellular AK activity)): 1.6; fold induction at 50 µM (P. aeruginosa; planktonic P. aeruginosa, 50 μM final drug concentration, positive cutoff 3-fold increase, read-out: AK-based Prestwick library screening result, P. aeruginosa (fold increase in extracellular AK activity)): 0.9; fold induction at 50 µM ([2]; planktonic A. baumannii, 50 μM final drug concentration, positive cutoff 3-fold increase, read-out: AK-based Prestwick library screening result, A. baumannii (fold increase in extracellular AK activity)): 1.1

— US10004701B2, “Methods and compositions for treating infection” (UNIVERSITY OF ROCHESTER, priority 2012, dated 2018)
